Patent US11807648B2, “Process for preparing substituted polycyclic pyridone derivative and crystal thereof” (priority 2016, dated 2023)

What was measured:
[1] = Plasma concentration after oral administration of Compound (VI) to rats; format: in vivo; details: after oral administration of Compound (VI) to rats under non-fasting condition
Source text: FIG. 7 is a time-course of the concentration in plasma of the compound of formula (V) after oral administration of the compound of formula (VI), which is a prodrug of the compound of formula (V), to rats under non-fasting condition.
FIG. 8 is a time-course of the concentration in plasma of the compound of formula (VI) after oral administration of the compound of formula (VI), which is a prodrug of the compound of formula (V), to rats under non-fasting condition.
FIG. 7 and FIG. 8 show the time-course of the concentration in plasma of Compound (V) and its prodrug Compound (VI) after oral administration of Compound (VI) to rats under non-fasting condition.

CYP3A4 [2] = target: T1, CYP3A4 (Homo sapiens, UniProt P08684); format: in vitro ADME; parameters: host or cells: Escherichia coli; details: pre-reaction time 0 or 30 minutes, 7-BFC substrate
T1 sequence (P08684 whole entry): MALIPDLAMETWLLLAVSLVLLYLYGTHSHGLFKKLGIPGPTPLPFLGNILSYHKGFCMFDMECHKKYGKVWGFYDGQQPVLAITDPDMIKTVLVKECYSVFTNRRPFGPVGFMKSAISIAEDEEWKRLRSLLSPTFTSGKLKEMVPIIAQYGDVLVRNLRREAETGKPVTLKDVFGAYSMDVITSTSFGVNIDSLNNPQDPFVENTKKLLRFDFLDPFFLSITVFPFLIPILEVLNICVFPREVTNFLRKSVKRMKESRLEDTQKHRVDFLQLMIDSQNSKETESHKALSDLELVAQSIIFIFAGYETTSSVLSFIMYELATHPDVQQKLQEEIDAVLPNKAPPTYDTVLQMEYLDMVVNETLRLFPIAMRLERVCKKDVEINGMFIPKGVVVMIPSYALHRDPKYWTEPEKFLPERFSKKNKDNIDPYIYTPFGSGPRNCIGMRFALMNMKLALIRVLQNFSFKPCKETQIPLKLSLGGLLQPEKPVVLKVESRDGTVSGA
Method: Test Example 6: CYP3A4 Fluorescent MBI Test
The CYP3A4 fluorescent MBI test investigates enhancement of CYP3A4 inhibition by Compound (V) in metabolism reaction. 7-benzyloxytrifluoromethylcoumarin (7-BFC) was debenzylated by CYP3A4 enzyme (enzyme expressed in Escherichia coli) and a metabolite, 7-hydroxytrifluoromethylcoumarin (7-HFC) which emits fluorescent light was produced. The test was performed using 7-HFC production reaction as an index.
The reaction conditions were as follows: Substrate, 5.6 μmol/L 7-BFC; pre-reaction time, 0 or 30 minutes; reaction time, 15 minutes; reaction temperature, 25° C. […]
A pre-reaction solution containing the enzyme and Compound (V) in K-Pi buffer (pH 7.4) as described above was added to a 96-well plate. […] For each of the plates on which the reaction was performed, the fluorescent value of the metabolite 7-HFC was measured by fluorescent plate reader (Ex=420 nm, Em=535 nm).
As a control for remaining activity, DMSO (i.e., the solvent for dissolving Compound (V)) was added solely to the reaction system, and the remaining activity (%) was calculated for each concentration of Compound (V) in the solution. The IC50 value was calculated by reverse-presumption by logistic model using the concentration and the inhibition rate. […]

[3] = format: in vitro ADME; details: 2 μmol/L of the compound, human liver microsomes 0.5 mg protein/mL, 30 minutes, 37° C., NADPH
Method: Test Example 5: Metabolism Stability Test
Compound (V) was reacted with commercially available pooled human hepatic microsomes for a certain time. The remaining rate of the compound was calculated by comparing the reacted sample and the unreacted sample to assess the degree of metabolism of Compound (V) in liver.
The compound was reacted in 0.2 mL of buffer (50 mmol/L Tris-HCl pH 7.4, 150 mmol/L potassium chloride, 10 mmol/L magnesium chloride) containing 0.5 mg protein/mL of human liver microsomes at 37° C. for 0 minute or 30 minutes in the presence of 1 mmol/L NADPH (oxidative reaction). After the reaction, 50 μL of the reaction solution was added to 100 μL of methanol/acetonitrile=1/1 (v/v), mixed and centrifuged at 3000 rpm for 15 minutes. The amount of Compound (V) in the supernatant was measured by LC/MS/MS, and the remaining rate of the compound after the reaction was calculated, with the amount of the compound at 0 minute of reaction time being 100%. The hydrolysis reaction was carried out in the absence of NADPH, and the glucuronidation reaction was carried out in the presence of 5 mmol/L UDP-glucuronic acid instead of NADPH, and the subsequent procedure was carried out in the same manner as described.

CYP3A4 [4] = target: T1, CYP3A4; assay: biochemical; format: in vitro ADME; parameters: Using commercially available pooled human hepatic microsome; from tissue; details: pooled human hepatic microsome 0.2 mg protein/mL, 15 minutes, 37° C.
Source text: (§1) Test Example 3: CYP Inhibition Test
(§2) Using commercially available pooled human hepatic microsome and employing, as a reference, typical substrate metabolism reactions of human main five CYP enzyme forms (CYP1A2, 2C9, 2C19, 2D6, 3A4), i.e., 7-ethoxyresorufin O-deethylation (CYP1A2), tolbutamide methyl-hydroxylation (CYP2C9), mephenytoin 4′-hydroxylation (CYP2C19), dextromethorphan O-demethylation (CYP2D6), and terfenedine hydroxylation (CYP3A4), the degree of inhibition by Compound (V) was assessed for each metabolite production.
The reaction conditions were as follows: […]
For each of the five substances, a reaction solution was prepared on a 96-well plate by adding the substrate, human hepatic microsome and Compound (V) to 50 mmol/L Hepes buffer in the proportion as described above. […] After centrifugation at 3000 rpm for minutes, resorufin (CYP1A2 metabolite) in the supernatant was measured by fluorescent multi-label counter, and hydroxytolbutamide (CYP2C9 metabolite), 4′-hydroxymephenytoin (CYP2C19 metabolite), dextrorphan (CYP2D6 metabolite) and terfenadine alcohol (CYP3A4 metabolite) were measured by LC/MS/MS. […]

CYP1A2 = target: T2, CYP1A2 (Homo sapiens, UniProt P05177); assay: biochemical; format: in vitro ADME; details: pooled human hepatic microsome 0.2 mg protein/mL, 15 minutes, 37° C.
T2 construct: Using commercially available pooled human hepatic microsome; from tissue
T2 sequence (P05177 1-516): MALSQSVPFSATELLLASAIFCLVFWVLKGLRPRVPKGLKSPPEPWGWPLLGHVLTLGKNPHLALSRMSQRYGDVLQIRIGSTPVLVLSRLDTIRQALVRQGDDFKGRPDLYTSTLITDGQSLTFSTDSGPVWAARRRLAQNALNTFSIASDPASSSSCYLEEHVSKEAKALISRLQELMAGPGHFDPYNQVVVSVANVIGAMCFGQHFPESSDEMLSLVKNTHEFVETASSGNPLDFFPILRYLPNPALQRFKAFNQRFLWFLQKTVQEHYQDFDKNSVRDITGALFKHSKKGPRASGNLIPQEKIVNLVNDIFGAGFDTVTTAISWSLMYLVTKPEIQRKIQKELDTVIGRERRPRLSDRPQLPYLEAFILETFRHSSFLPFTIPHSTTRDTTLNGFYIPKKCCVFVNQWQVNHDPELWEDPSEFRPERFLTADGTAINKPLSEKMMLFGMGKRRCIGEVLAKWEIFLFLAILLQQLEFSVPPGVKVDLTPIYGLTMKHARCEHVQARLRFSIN
Source text: as §1, §2
(§3) The reaction conditions were as follows:
(§4) Substrate: 0.5 μmol/L ethoxyresorufin (CYP1A2), 100 μmol/L tolbutamide (CYP2C9), 50 μmol/L S-mephenytoin (CYP2C19), 5 μmol/L dextromethorphan (CYP2D6), 1 μmol/L terfenedine (CYP3A4); Reaction time: 15 minutes; Reaction temperature: 37° C.; Enzyme: pooled human hepatic microsome 0.2 mg protein/mL; Concentration of Compound (V): 1, 5, 10, 20 μmol/L (four points).
(§5) For each of the five substances, a reaction solution was prepared on a 96-well plate by adding the substrate, human hepatic microsome and Compound (V) to 50 mmol/L Hepes buffer in the proportion as described above. NADPH, which is a cofactor, was added to initiate the metabolism reaction. After incubating at 37° C. for 15 minutes, a methanol/acetonitrile solution (1/1 (v/v)) was added to quench the reaction. After centrifugation at 3000 rpm for minutes, resorufin (CYP1A2 metabolite) in the supernatant was measured by fluorescent multi-label counter, and hydroxytolbutamide (CYP2C9 metabolite), 4′-hydroxymephenytoin (CYP2C19 metabolite), dextrorphan (CYP2D6 metabolite) and terfenadine alcohol (CYP3A4 metabolite) were measured by LC/MS/MS.
(§6) As a control, DMSO (the solvent for dissolving Compound (V)) was added solely to the reaction system. The remaining activity (%) of Compound (V), relative to the control (100%), was calculated at each concentration of the compound, and the IC50 was calculated by reverse presumption by a logistic model using the concentration and the inhibition rate.

CYP2C19 = target: T3, CYP2C19 (Homo sapiens, UniProt P33261); assay: biochemical; format: in vitro ADME; details: pooled human hepatic microsome 0.2 mg protein/mL, 15 minutes, 37° C.
T3 construct: Using commercially available pooled human hepatic microsome; from tissue
T3 sequence (P33261 whole entry): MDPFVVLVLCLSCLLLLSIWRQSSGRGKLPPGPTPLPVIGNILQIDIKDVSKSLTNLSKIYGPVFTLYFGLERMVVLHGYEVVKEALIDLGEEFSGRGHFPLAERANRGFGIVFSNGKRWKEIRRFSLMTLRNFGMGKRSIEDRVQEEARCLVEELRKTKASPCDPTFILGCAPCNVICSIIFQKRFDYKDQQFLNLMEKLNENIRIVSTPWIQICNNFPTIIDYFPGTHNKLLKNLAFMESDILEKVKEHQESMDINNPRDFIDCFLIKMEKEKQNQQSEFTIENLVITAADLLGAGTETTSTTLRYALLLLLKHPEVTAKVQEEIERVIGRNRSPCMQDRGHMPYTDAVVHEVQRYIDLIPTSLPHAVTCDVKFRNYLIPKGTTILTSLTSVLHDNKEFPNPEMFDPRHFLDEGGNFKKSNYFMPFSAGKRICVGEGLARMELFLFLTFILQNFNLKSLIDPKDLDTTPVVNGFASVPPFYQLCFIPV
Source text: as §1, §2, §3, §4, §5, §6

CYP2D6 = target: T4, CYP2D6 (Homo sapiens, UniProt P10635); assay: biochemical; format: in vitro ADME; details: pooled human hepatic microsome 0.2 mg protein/mL, 15 minutes, 37° C.
T4 construct: Using commercially available pooled human hepatic microsome; from tissue
T4 sequence (P10635 whole entry): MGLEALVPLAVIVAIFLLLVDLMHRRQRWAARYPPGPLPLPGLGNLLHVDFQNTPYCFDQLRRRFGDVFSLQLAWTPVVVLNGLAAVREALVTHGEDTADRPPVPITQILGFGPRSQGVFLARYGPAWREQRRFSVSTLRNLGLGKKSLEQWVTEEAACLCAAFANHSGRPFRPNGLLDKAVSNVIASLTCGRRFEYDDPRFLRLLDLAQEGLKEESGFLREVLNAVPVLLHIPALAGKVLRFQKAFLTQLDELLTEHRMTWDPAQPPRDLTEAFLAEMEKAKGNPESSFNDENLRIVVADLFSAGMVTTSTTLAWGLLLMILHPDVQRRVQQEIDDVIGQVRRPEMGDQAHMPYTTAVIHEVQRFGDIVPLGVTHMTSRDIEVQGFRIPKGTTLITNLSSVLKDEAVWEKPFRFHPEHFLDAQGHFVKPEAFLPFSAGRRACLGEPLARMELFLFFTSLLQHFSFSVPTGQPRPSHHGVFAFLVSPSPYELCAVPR
Source text: as §1, §2, §3, §4, §5, §6

CYP2C9 = target: T5, CYP2C9 (Homo sapiens, UniProt P11712); assay: biochemical; format: in vitro ADME; details: pooled human hepatic microsome 0.2 mg protein/mL, 15 minutes, 37° C.
T5 construct: Using commercially available pooled human hepatic microsome; from tissue
T5 sequence (P11712 whole entry): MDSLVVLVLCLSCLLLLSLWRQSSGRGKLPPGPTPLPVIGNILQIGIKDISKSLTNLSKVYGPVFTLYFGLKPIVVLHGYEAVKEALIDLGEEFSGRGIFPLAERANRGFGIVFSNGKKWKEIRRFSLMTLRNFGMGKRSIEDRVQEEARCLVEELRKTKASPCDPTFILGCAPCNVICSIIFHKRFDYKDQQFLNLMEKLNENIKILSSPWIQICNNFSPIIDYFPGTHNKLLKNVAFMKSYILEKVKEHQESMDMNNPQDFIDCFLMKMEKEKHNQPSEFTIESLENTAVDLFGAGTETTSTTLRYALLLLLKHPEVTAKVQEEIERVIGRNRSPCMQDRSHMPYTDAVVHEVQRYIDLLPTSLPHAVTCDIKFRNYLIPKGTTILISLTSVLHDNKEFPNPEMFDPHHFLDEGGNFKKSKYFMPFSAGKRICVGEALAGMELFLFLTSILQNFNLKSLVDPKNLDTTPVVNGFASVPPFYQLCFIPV
Source text: as §1, §2, §3, §4, §5, §6

[5] = tested on: red blood cell suspension prepared from ovine defibrinated blood of sheep; assay: Photohemolysis test; format: cell-based; details: UVA and UVB irradiation 10 J/cm^2, 290-400 nm
Method: Test Example 12: Photohemolysis Test
Compound (V) was dissolved at a predetermined concentration and mixed on a microplate with a […] (2.5 v/v %) prepared from ovine defibrinated blood of sheep. Light irradiation in the UVA and UVB wavelength regions (10 J/cm^2, 290-400 nm) was performed using ultraviolet fluorescent lamp (GL20SE lamp, Sankyo Denki and FL20S-BLB lamp, Panasonic). The mixed solution after the irradiation was collected and centrifuged. After centrifugation, the supernatant was collected and transferred to a microplate, and the absorbance (at 540 or 630 nm) of the supernatant was measured. The absorbance at 540 and 630 nm were used as an index of biological membrane damage (% light hemolysis) and lipid membrane peroxidation (methemoglobin production), respectively. (−): less than 10% for photohemolysis rate and less than 0.05 for the change in absorbance at 630 nm; (+): 10% or more for photohemolysis rate and 0.05 or more for the change in absorbance at 630 nm.

SMILES	concentration in plasma sample [1]	CYP3A4 fluorescent MBI (difference in IC50 values with/without pre-incubation) (CYP3A4 [2])	remaining rate in oxidative metabolism [3]	IC50 (CYP3A4 [4])	IC50 (CYP1A2)	IC50 (CYP2C19)	IC50 (CYP2D6)	IC50 (CYP2C9)	photohemolysis [5]
COC(=O)OCOc1c2n(ccc1=O)N([C@@H]1c3ccccc3SCc3c1ccc(F)c3F)[C@@H]1COCCN1C2=O [Compound (VI)]	below the limit of quantification								
O=C1c2c(O)c(=O)ccn2N([C@@H]2c3ccccc3SCc3c2ccc(F)c3F)[C@@H]2COCCN12 [Compound (V)]		(−) (a difference of 3 μM or less was defined as (−))	90.1%	> 20 µM	> 20 µM	> 20 µM	> 20 µM	> 20 µM	(−) ((−): less than 10% for photohemolysis rate and less than 0.05 for the change in absorbance at 630 nm)
